# Data: patent US8952024B2, “Herbicidal pyrimidone derivatives” (E I du Pont de Nemours and Company, priority 2009, dated 2015)
# How the values were obtained:
# Assay in all cases: Test B pre-/postemergence plant response
# Format in all cases: in vivo
# [1] = tested on: johnsongrass (Sorghum halepense)
# In short: (§1)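 Steps: sow seed in loam–sand soil and spray preemergence, or grow plants in peat-based medium to 1–4 leaves (2–18 cm) and spray postemergence; formulation is non-phytotoxic solvent plus surfactant; hold in greenhouse 13–15 days; score visually vs controls, 0 = no effect, 100 = complete control.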
# [2] = tested on: soybean (Glycine max)
# In short: as §1
# [3] = tested on: woolly cupgrass (Eriochloa villosa)
# In short: as §1
# [4] = tested on: velvetleaf (Abutilon theophrasti)
# In short: as §1
# [5] = tested on: lambsquarters (Chenopodium album)
# In short: as §1
# [6] = tested on: wheat (Triticum aestivum)
# In short: as §1
# [7] = tested on: green foxtail (Setaria viridis)
# In short: as §1
# [8] = tested on: yellow nutsedge (Cyperus esculentus)
# In short: as §1
# [9] = tested on: kochia (Kochia scoparia)
# In short: as §1
# [10] = tested on: goosegrass (Eleusine indica)
# In short: as §1
# [11] = tested on: bermudagrass (Cynodon dactylon)
# In short: as §1
# [12] = tested on: ragweed (common ragweed, Ambrosia elatior)
# In short: as §1
# [13] = tested on: large crabgrass (Digitaria sanguinalis)
# In short: as §1
# [14] = 250 g ai/ha, Preemergence, 0 to 100 scale
# [15] = Postemergence, 31 g ai/ha, scale 0 to 100 (0 no effect, 100 complete control)
# [16] = Postemergence, 62 g ai/ha, scale 0 (no effect) to 100 (complete control), 13 to 15 days
# [17] = Postemergence, 125 g ai/ha, visual rating after 13 to 15 days, scale 0 (no effect) to 100 (complete control)
# [18] = Postemergence, 250 g ai/ha, scale 0 to 100
# [19] = Preemergence, 31 g ai/ha, scale 0 to 100 (0 no effect, 100 complete control)
# [20] = Preemergence, 62 g ai/ha, scale 0 to 100 (0 no effect, 100 complete control)
# [21] = Preemergence, 125 g ai/ha, 0 to 100 scale
smiles,measurement,setting,value
O=C1CCCC(O)=C1C(=O)c1cnc(-c2ccccc2)n(-c2ccccc2F)c1=O [Compound 26],"Plant response rating, Johnsongrass",[1]; [14],90
same,"Plant response rating, Johnsongrass",[1]; [15],35
same,"Plant response rating, Johnsongrass",[1]; [16],50
same,"Plant response rating, Johnsongrass",[1]; [17],50
same,Johnsongrass plant response rating,[1]; [18],70
same,"Plant response rating, Johnsongrass",[1]; [19],0
same,"Plant response rating, Johnsongrass",[1]; [20],10
same,Johnsongrass plant response rating,[1]; [21],60
same,"Plant response rating, Soybean",[2]; [14],90
same,"Plant response rating, Soybean",[2]; [15],95
same,"Plant response rating, Soybean",[2]; [16],95
same,"Plant response rating, Soybean",[2]; [17],95
same,Soybean plant response rating,[2]; [18],98
same,"Plant response rating, Soybean",[2]; [19],50
same,"Plant response rating, Soybean",[2]; [20],60
same,Soybean plant response rating,[2]; [21],80
same,"Plant response rating, Cupgrass, Woolly",[3]; [14],85
same,"Plant response rating, Cupgrass, Woolly",[3]; [15],40
same,"Plant response rating, Cupgrass, Woolly",[3]; [16],40
same,"Plant response rating, Cupgrass, Woolly",[3]; [17],85
same,"Cupgrass, Woolly plant response rating",[3]; [18],85
same,"Plant response rating, Cupgrass, Woolly",[3]; [19],0
same,"Plant response rating, Cupgrass, Woolly",[3]; [20],5
same,"Cupgrass, Woolly plant response rating",[3]; [21],50
same,"Plant response rating, Velvetleaf",[4]; [14],100
same,"Plant response rating, Velvetleaf",[4]; [15],70
same,"Plant response rating, Velvetleaf",[4]; [16],70
same,"Plant response rating, Velvetleaf",[4]; [17],95
same,Velvetleaf plant response rating,[4]; [18],98
same,"Plant response rating, Velvetleaf",[4]; [19],50
same,"Plant response rating, Velvetleaf",[4]; [20],90
same,Velvetleaf plant response rating,[4]; [21],100
same,"Plant response rating, Lambsquarters",[5]; [14],100
same,"Plant response rating, Lambsquarters",[5]; [15],80
same,"Plant response rating, Lambsquarters",[5]; [16],90
same,"Plant response rating, Lambsquarters",[5]; [17],90
same,Lambsquarters plant response rating,[5]; [18],98
same,"Plant response rating, Lambsquarters",[5]; [19],98
same,"Plant response rating, Lambsquarters",[5]; [20],100
same,Lambsquarters plant response rating,[5]; [21],100
same,"Plant response rating, Wheat",[6]; [14],0
same,"Plant response rating, Wheat",[6]; [15],0
same,"Plant response rating, Wheat",[6]; [16],0
same,"Plant response rating, Wheat",[6]; [17],5
same,Wheat plant response rating,[6]; [18],30
same,"Plant response rating, Wheat",[6]; [19],0
same,"Plant response rating, Wheat",[6]; [20],0
same,Wheat plant response rating,[6]; [21],0
same,"Plant response rating, Foxtail, Green",[7]; [14],70
same,"Plant response rating, Foxtail, Green",[7]; [15],35
same,"Plant response rating, Foxtail, Green",[7]; [16],40
same,"Plant response rating, Foxtail, Green",[7]; [17],85
same,"Foxtail, Green plant response rating",[7]; [18],95
same,"Plant response rating, Foxtail, Green",[7]; [19],0
same,"Plant response rating, Foxtail, Green",[7]; [20],0
same,"Foxtail, Green plant response rating",[7]; [21],30
same,"Plant response rating, Nutsedge, Yellow",[8]; [14],85
same,"Plant response rating, Nutsedge, Yellow",[8]; [15],30
same,"Plant response rating, Nutsedge, Yellow",[8]; [16],30
same,"Plant response rating, Nutsedge, Yellow",[8]; [17],35
same,"Nutsedge, Yellow plant response rating",[8]; [18],35
same,"Plant response rating, Nutsedge, Yellow",[8]; [19],10
same,"Plant response rating, Nutsedge, Yellow",[8]; [20],50
same,"Nutsedge, Yellow plant response rating",[8]; [21],50
same,"Plant response rating, Kochia",[9]; [14],100
same,"Plant response rating, Kochia",[9]; [19],80
same,"Plant response rating, Kochia",[9]; [20],100
same,Kochia plant response rating,[9]; [21],100
same,"Plant response rating, Goosegrass",[10]; [14],100
same,"Plant response rating, Goosegrass",[10]; [15],60
same,"Plant response rating, Goosegrass",[10]; [16],90
same,"Plant response rating, Goosegrass",[10]; [17],95
same,Goosegrass plant response rating,[10]; [18],95
same,"Plant response rating, Goosegrass",[10]; [19],5
same,Goosegrass plant response rating,[10]; [21],95
same,"Plant response rating, Bermudagrass",[11]; [14],100
same,"Plant response rating, Bermudagrass",[11]; [15],40
same,"Plant response rating, Bermudagrass",[11]; [16],50
same,"Plant response rating, Bermudagrass","[11]; Postemergence, 125 g ai/ha, scale 0 to 100 (0 no effect, 100 complete control), 13 to 15 days",60
same,Bermudagrass plant response rating,[11]; [18],75
same,"Plant response rating, Bermudagrass",[11]; [19],5
same,"Plant response rating, Bermudagrass",[11]; [20],70
same,Bermudagrass plant response rating,[11]; [21],98
same,"Plant response rating, Ragweed",[12]; [14],100
same,"Plant response rating, Ragweed",[12]; [15],70
same,"Plant response rating, Ragweed",[12]; [16],85
same,"Plant response rating, Ragweed",[12]; [17],98
same,Ragweed plant response rating,[12]; [18],100
same,"Plant response rating, Ragweed",[12]; [19],65
same,"Plant response rating, Ragweed",[12]; [20],85
same,Ragweed plant response rating,[12]; [21],95
same,"Plant response rating, Crabgrass, Large",[13]; [14],100
same,"Plant response rating, Crabgrass, Large",[13]; [15],40
same,"Plant response rating, Crabgrass, Large",[13]; [16],50
same,"Plant response rating, Crabgrass, Large",[13]; [17],50
same,"Crabgrass, Large plant response rating",[13]; [18],80
same,"Plant response rating, Crabgrass, Large",[13]; [19],0
same,"Plant response rating, Crabgrass, Large",[13]; [20],40
same,"Crabgrass, Large plant response rating",[13]; [21],100
Cc1cccc(Cl)c1-n1c(-c2ccccc2)ncc(C(=O)C2=C(O)CCCC2=O)c1=O [Compound 46],"Plant response rating, Johnsongrass",[1]; [14],70
same,"Plant response rating, Johnsongrass",[1]; [16],50
same,"Plant response rating, Johnsongrass",[1]; [17],70
same,Johnsongrass plant response rating,[1]; [18],75
same,"Plant response rating, Johnsongrass",[1]; [19],0
same,"Plant response rating, Johnsongrass",[1]; [20],10
same,Johnsongrass plant response rating,[1]; [21],45
same,"Plant response rating, Soybean",[2]; [14],25
same,"Plant response rating, Soybean",[2]; [16],80
same,"Plant response rating, Soybean",[2]; [17],90
same,"Plant response rating, Soybean",[2]; [19],0
same,Soybean plant response rating,[2]; [21],15
same,"Plant response rating, Cupgrass, Woolly",[3]; [14],60
same,"Plant response rating, Cupgrass, Woolly",[3]; [15],10
same,"Plant response rating, Cupgrass, Woolly",[3]; [16],20
same,"Plant response rating, Cupgrass, Woolly",[3]; [17],25
same,"Cupgrass, Woolly plant response rating",[3]; [18],45
same,"Plant response rating, Cupgrass, Woolly",[3]; [19],10
same,"Plant response rating, Cupgrass, Woolly",[3]; [20],45
same,"Cupgrass, Woolly plant response rating",[3]; [21],50
same,"Plant response rating, Velvetleaf",[4]; [14],65
same,"Plant response rating, Velvetleaf",[4]; [16],80
same,"Plant response rating, Velvetleaf",[4]; [17],85
same,"Plant response rating, Velvetleaf",[4]; [19],0
same,Velvetleaf plant response rating,[4]; [21],55
same,"Plant response rating, Lambsquarters",[5]; [14],100
same,"Plant response rating, Lambsquarters",[5]; [16],85
same,"Plant response rating, Lambsquarters",[5]; [17],90
same,Lambsquarters plant response rating,[5]; [18],95
same,"Plant response rating, Lambsquarters",[5]; [19],90
same,"Plant response rating, Lambsquarters",[5]; [20],90
same,Lambsquarters plant response rating,[5]; [21],95
same,"Plant response rating, Wheat",[6]; [14],0
same,"Plant response rating, Wheat",[6]; [16],0
same,"Plant response rating, Wheat",[6]; [17],0
same,"Plant response rating, Wheat",[6]; [19],0
same,Wheat plant response rating,[6]; [21],0
same,"Plant response rating, Foxtail, Green",[7]; [14],10
same,"Plant response rating, Foxtail, Green",[7]; [15],45
same,"Plant response rating, Foxtail, Green",[7]; [16],60
same,"Plant response rating, Foxtail, Green",[7]; [17],85
same,"Foxtail, Green plant response rating",[7]; [18],85
same,"Plant response rating, Foxtail, Green",[7]; [19],0
same,"Plant response rating, Foxtail, Green",[7]; [20],0
same,"Foxtail, Green plant response rating",[7]; [21],5
same,"Plant response rating, Nutsedge, Yellow",[8]; [14],90
same,"Plant response rating, Nutsedge, Yellow",[8]; [16],70
same,"Plant response rating, Nutsedge, Yellow",[8]; [17],70
same,"Plant response rating, Nutsedge, Yellow",[8]; [19],25
same,"Nutsedge, Yellow plant response rating",[8]; [21],80
same,"Plant response rating, Kochia",[9]; [16],0
same,"Plant response rating, Kochia",[9]; [17],20
same,Kochia plant response rating,[9]; [18],30
same,"Plant response rating, Goosegrass",[10]; [14],98
same,"Plant response rating, Goosegrass",[10]; [16],75
same,"Plant response rating, Goosegrass",[10]; [17],80
same,Goosegrass plant response rating,[10]; [18],80
same,"Plant response rating, Goosegrass",[10]; [19],85
same,Goosegrass plant response rating,[10]; [21],98
same,"Plant response rating, Bermudagrass",[11]; [14],98
same,"Plant response rating, Bermudagrass",[11]; [15],80
same,"Plant response rating, Bermudagrass",[11]; [16],85
same,"Plant response rating, Bermudagrass",[11]; [17],90
same,Bermudagrass plant response rating,[11]; [18],90
same,"Plant response rating, Bermudagrass",[11]; [19],0
same,"Plant response rating, Ragweed",[12]; [14],100
same,"Plant response rating, Ragweed",[12]; [16],75
same,"Plant response rating, Ragweed",[12]; [17],80
same,"Plant response rating, Ragweed",[12]; [19],100
same,Ragweed plant response rating,[12]; [21],100
same,"Plant response rating, Crabgrass, Large",[13]; [14],98
same,"Plant response rating, Crabgrass, Large",[13]; [15],60
same,"Plant response rating, Crabgrass, Large",[13]; [16],65
same,"Plant response rating, Crabgrass, Large",[13]; [17],75
same,"Crabgrass, Large plant response rating",[13]; [18],75
same,"Plant response rating, Crabgrass, Large",[13]; [19],45
same,"Plant response rating, Crabgrass, Large",[13]; [20],75
same,"Crabgrass, Large plant response rating",[13]; [21],85
